Patent US20190376039A1, “CELLS WITH IMPROVED INWARD RECTIFIER CURRENT” (priority 2018, published 2019)

Experiments:
[1] = tested on: ES-Kir2.1 and iPS-Kir2.1 cell lines; assay: Initiation of cardiomyocyte differentiation (Day 0 medium); type: cell-based, human; details: 12 μM CHIR99021 in RPMI/B27-insulin
Procedure: The ES-Kir2.1 and iPS-Kir2.1 cell lines were cultured in feeder-free media and prepared for differentiation as previously described with modifications (see, e.g., Lian et al. (2012) “Robust cardiomyocyte differentiation from human pluripotent stem cells via temporal modulation of canonical Wnt signaling” Proc Natl Acad Sci USA 109: E1848-57; Lian et al. (2013) “Directed cardiomyocyte differentiation from human pluripotent stem cells by modulating Wnt/6-catenin signaling under fully defined conditions” Nature Protocols 8: 162-75, each of which is incorporated herein by reference in its entirety). In particular, five days prior to differentiation (“Differentiation Day −5”), cells were harvested and seeded. Media was removed from the stem cell cultures and the cells were and washed with 1 mL DPBS per well. Next, 1 mL of Versene was added to each well and the cells were incubated at 37° C. for 5 minutes. Cells were transferred to a 50-ml tube, an equal volume of medium was added, and the cells were resuspended by gentle pipetting to singularize the cells. Cells were counted, pelleted, and resuspended in culture medium (e.g., mTeSR1, Stem Flex, etc.) to provide cells at a concentration that is pipetted into 6-well plates at approximately 2 million cells per 6-well plate. […]

[2] = tested on: IK1-induced ventricular-like SC-CMs; assay: Action potentials under current clamp in paced IK1-induced SC-CMs (di-LQTS model); details: for slope of linear regression, EAD take-off potential vs. peak EAD voltage: 100 nM E4031; for APD10 / APD50 / APD70 / APD90 / RMP: E4031 20 nM, mean SE
Procedure: SC-CMs were singularized and plated before cellular electrophysiology experiments on 12-mm poly-d-lysine/laminin or SyntheMax pre-coated coverslips. IK1 was induced by treating singularized cells with doxycycline (2 μM) (Thermo Fisher Scientific) for 48-72 hours prior to cellular electrophysiology analysis. Borosilicate glass pipettes (3-4 MΩ) were used (Model P-97; Sutter Instruments, Novato, Calif.). Whole cell capacitance was calculated by using the time domain technique (20).
AP were measured under current clamp at 32° C. using an Axopatch 200B amplifier and pCLAMP 10 (Molecular Devices, Sunnyvale, Calif.). […] The pipette solution comprised 150 mM K-gluconate, 5 mM EGTA, 10 mM HEPES, and 5 mM MgATP (pH 7.2, KOH). Myocytes were paced at 0.5, 1, 2, and 3 Hz with a depolarizing pulse from a programmable digital stimulator (D55000; WPI, Sarasota, Fla.). AP properties including AP amplitude; resting membrane potential; AP duration at 10% (APD10), 50% (APD50), 70% (APD70), and 90% (APD90) of repolarization; and maximum upstroke velocity (dV/dtmax) were measured (pCLAMP 10; Matlab 6.0, Natick, Mass.). […] Myocytes were paced at 0.5 and 1 Hz. […] AP properties identified above were re-measured.

[3] = 20 nM E4031, 0.5 Hz pacing, p<0.01
[4] = 0.5 Hz pacing, E4031 20 nM and 100 nM, ATX-II 30 nM
[5] = drug vs baseline, E4031, ATX-II 30 nM

Compound | cell killing at initiation of differentiation [1] | effect on APD10 compared with control ([2]; 20 nM E4031, 0.5 Hz pacing) | effect on APD50 compared with control ([2]; 20 nM E4031, 0.5 Hz pacing) | effect on APD70 compared with control [2, 3] | effect on APD90 compared with control [2, 3] | slope of linear regression, EAD take-off potential vs. peak EAD voltage ([2]; FIG. 4C) | slope of linear regression, EAD take-off potential vs. peak EAD voltage ([2]; FIG. 4D, second independent experiment) | AP prolongation (APD) compared to control [2, 4] | APD10 ([2]; 0.5 Hz pacing, ATX-II 30 nM) | APD50 ([2]; 0.5 Hz pacing, ATX-II 30 nM) | APD70 ([2]; 0.5 Hz pacing, ATX-II 30 nM) | APD90 ([2]; 0.5 Hz pacing, ATX-II 30 nM) | RMP ([2]; 0.5 Hz pacing, ATX-II 30 nM) | effect on RMP [2, 5] | induction of early afterdepolarizations (EADs) [2, 4] | effect on dV/dt max [2, 5]
Cc1c[nH]c(-c2cnc(NCCNc3ccc(C#N)cn3)nc2-c2ccc(Cl)cc2Cl)n1 [CHIR99021] | kills all or most of the cells | – | – | – | – | – | – | – | – | – | – | – | – | – | – | –
Cc1cccc(CCN2CCC(C(=O)c3ccc(NS(C)(=O)=O)cc3)CC2)n1 [E4031] | – | No significant effect | No significant effect | significantly prolongs | significantly prolongs | −2.6±0.1 | −1.68±0.09 | dose-dependent AP prolongation | 131.1 ± 53.4 ms | 633.8 ± 153.2 ms | 767.5 ± 164.8 ms | 802.4 ± 172.0 ms | −70.6 ± 4.11 mV | remains normally polarized and stable | – | –
ATX-II: late sodium current agonist (Alamone Labs); late INa enhancing drug (delayed channel inactivation) | – | – | – | – | – | – | – | markedly increased | 45.2 ± 25.0 ms | 869.4 ± 111.7 ms | 1025.6 ± 107.4 ms | 1056.9 ± 106.5 ms | −76.2 ± 3.65 mV | no difference | did not occur | no difference
